Test results as given in ChEMBL document CHEMBL1136226, “Design and synthesis of new benzimidazole-arylpiperazine derivatives acting as mixed 5-HT1A/5-HT3 ligands” (Bioorg Med Chem Lett, 2003).

What was measured:
[1] = molecular target: T1, Serotonin 3 (5-HT3) receptor (Rattus norvegicus, UniProt P35563+Q9JJ16); test: Binding affinity for 5-HT3 receptor by displacement of [3H]-LY 278584 in rat cerebral cortex membranes; type: cell membranes, Membrane
T1 sequence (P35563 whole entry): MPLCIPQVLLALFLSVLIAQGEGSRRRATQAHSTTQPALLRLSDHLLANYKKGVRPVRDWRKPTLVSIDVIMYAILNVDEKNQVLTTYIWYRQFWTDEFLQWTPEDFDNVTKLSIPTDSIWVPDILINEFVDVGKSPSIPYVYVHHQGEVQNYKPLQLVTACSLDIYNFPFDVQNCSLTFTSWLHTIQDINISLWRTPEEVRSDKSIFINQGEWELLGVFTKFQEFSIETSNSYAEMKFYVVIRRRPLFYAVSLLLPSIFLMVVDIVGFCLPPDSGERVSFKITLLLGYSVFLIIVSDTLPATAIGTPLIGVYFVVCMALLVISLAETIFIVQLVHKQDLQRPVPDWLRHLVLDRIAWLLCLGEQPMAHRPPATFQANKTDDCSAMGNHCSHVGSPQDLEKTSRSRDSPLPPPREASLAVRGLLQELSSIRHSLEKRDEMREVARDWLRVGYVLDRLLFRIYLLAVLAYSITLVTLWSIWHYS
T1 sequence (Q9JJ16 whole entry): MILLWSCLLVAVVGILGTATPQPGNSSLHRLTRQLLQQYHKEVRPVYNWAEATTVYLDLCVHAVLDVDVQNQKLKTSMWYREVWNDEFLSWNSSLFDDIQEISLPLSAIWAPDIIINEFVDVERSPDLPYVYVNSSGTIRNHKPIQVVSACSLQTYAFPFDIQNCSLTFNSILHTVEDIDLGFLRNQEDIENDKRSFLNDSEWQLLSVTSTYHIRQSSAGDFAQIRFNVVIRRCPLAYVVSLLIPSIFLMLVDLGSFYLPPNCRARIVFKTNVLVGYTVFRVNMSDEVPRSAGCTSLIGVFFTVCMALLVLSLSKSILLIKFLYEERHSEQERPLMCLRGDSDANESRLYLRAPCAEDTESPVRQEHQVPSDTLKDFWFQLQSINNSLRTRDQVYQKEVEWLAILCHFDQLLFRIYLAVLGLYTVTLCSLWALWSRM

[2] = molecular target: T2, 5-hydroxytryptamine receptor 1A (Rattus norvegicus, UniProt P19327); test: Displacement of [3H]8-OH-DPAT from 5-hydroxytryptamine 1A receptor of rat cerebral cortex membranes; type: cell membranes, Membrane
T2 sequence (P19327 whole entry): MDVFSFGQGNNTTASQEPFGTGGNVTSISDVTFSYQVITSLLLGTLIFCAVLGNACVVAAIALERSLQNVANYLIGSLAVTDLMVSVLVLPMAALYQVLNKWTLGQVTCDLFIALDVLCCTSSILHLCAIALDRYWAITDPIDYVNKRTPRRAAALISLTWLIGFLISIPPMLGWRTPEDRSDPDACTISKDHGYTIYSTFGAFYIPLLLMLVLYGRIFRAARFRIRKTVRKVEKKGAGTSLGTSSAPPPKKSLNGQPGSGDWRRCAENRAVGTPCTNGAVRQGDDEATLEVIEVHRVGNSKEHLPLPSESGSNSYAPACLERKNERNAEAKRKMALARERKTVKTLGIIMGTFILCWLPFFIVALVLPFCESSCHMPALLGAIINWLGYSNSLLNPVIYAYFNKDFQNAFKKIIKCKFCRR

[3] = organism: Cavia porcellus; test: Blockade of isolated longitudinal muscle myenteric plexus contraction from guinea-pig ileum; type: functional; conditions: Muscle tissue

SMILES | Ki [1] [nM] | Ki [2] [nM] | IC50 [3] [nM]
CC(C)Oc1ccccc1N1CCN(Cc2nc3cccc(C(=O)NC4CN5CCC4CC5)c3[nH]2)CC1 (centres undefined) | 62.1 | 34.4 | 
CCCCOc1ccccc1N1CCN(Cc2nc3c(C(=O)NC4CN5CCC4CC5)cccc3[nH]2)CC1 (centres undefined) | 15.1 | 45.9 | 
O=C(NC1CN2CCC1CC2)c1cccc2[nH]c(CN3CCN(c4cccc(Cl)c4)CC3)nc12 (centres undefined) | 18.3 | > 10000 | 
O=C(NC1CN2CCC1CC2)c1cccc2nc(CN3CCN(c4cccc(C(F)(F)F)c4)CC3)[nH]c12 (centres undefined) | 23.9 | > 10000 | 
O=C(NC1CN2CCC1CC2)c1cccc2nc(CN3CCN(c4ccccc4)CC3)[nH]c12 (centres undefined) | 23.1 | > 1000 | 
O=C(NC1CN2CCC1CC2)c1cccc2nc(CN3CCN(c4cccc5nc[nH]c45)CC3)[nH]c12 (centres undefined) | > 1000 | 148 | 
CCCOc1ccccc1N1CCN(Cc2nc3c(C(=O)NC4CN5CCC4CC5)cccc3[nH]2)CC1 (centres undefined) | 24.6 | 56.1 | 
Cc1nccn1CC1CCc2c(c3ccccc3n2C)C1=O (centres undefined) [ONDANSETRON] |  |  | 240
O=C(NC1CN2CCC1CC2)c1cccc2[nH]c(CN3CCN(c4ccc5c(c4)OCO5)CC3)nc12 (centres undefined) | 24 | 467 | 
COc1ccccc1N1CCN(Cc2nc3cccc(C(=O)NC4CN5CCC4CC5)c3[nH]2)CC1 (centres undefined) | 10.3 | 150 | 
O=C(NC1CN2CCC1CC2)c1cccc2[nH]c(CN3CCN(c4cccc5ccccc45)CC3)nc12 (centres undefined) | 32.5 | > 1000 | 
CCOc1ccccc1N1CCN(Cc2nc3c(C(=O)NC4CN5CCC4CC5)cccc3[nH]2)CC1 (centres undefined) | 27.2 | 18 | 190
